Like-named read-outs stand apart in the source and are kept apart here.
Columns and labels:
Format in all cases: cell-based
Fusarium solani 4 (FS4) = experiment: Antifungal MIC (Example 4); set-up: MIC values (>80% reduction) FS4, positive control: unit not given beside the values; settings: for MIC values (>80% reduction) FS4: Fusarium solani 4, peptides, Tables 4 and 5
Procedure: (§1) The inventor expanded the work conducted in Example 1 by testing an expanded library of peptides derived from either apolipoprotein B or apolipoprotein E in order to further evaluate polypeptides in accordance with the invention. These experiments were conducted using the following fungal species:
(§2) FS1-FS4 were obtained from Bristol PHLS (British Public Health Laboratory Service UK). Aspergillus fumigatus 293 is publicly available as culture collection strain NCPF7367 (National Collection of Pathogenic Fungi Public Health Laboratory, Mycological Reference Laboratory Myrtle Road, Kingsdown, Bristol BS2 8EL) The Candida albicans was a clinical isolate obtained by standard means.
(§3) The methods used to determine, the IC50 values for each peptide were as described in the Example 1.

Fusarium solani 2 (FS2) = experiment: Antifungal MIC (Example 4); set-up: MIC values (>80% reduction) FS2, positive control: unit not given beside the values; settings: for MIC values (>80% reduction) FS2: Fusarium solani 2, peptides, Tables 4 and 5
Procedure: as §1, §2, §3

[1] = tested on: Fusarium spp 5889 (clinical isolate); experiment: Antifungal MIC broth dilution (Example 1); settings: RPMI, 48 hrs, >80% reduction
Procedure: (§4) Four compounds were supplied as an aqueous solution, 400 μM. Serial dilutions of each test peptide were prepared in addition to a control, which was a conventional antifungal drug, Amphoteracin B. Amphteracin B is obtained from Invitrogen or Melford laboratories.
(§5) Initial testing of the peptides was carried out against the following organisms: • 1) Aspergillus fumigatus AF293 (culture collection strain NCPF7367) • 2) Candida albicans 6862 (clinical isolate) • 3) Fusarium spp 5889 (clinical isolate) • 4) Fusarium spp 6507 (clinical isolate) • 5) Aspergillus terreus (clinical isolate) • 6) Aspergillus niger (clinical isolate) • 7) Staphylococcus aureus (Oxford strain, which is a standard reference strain used in MIC testing)
(§6) The bacterium S. aureus was tested with each of the peptides as a control. A suspension of each organism in an appropriate growth medium was added to the, dilutions of the peptides in order to give concentration ranges of 40 μM to 0.04 μM for each of the peptides, and 64-0.025 μg/ml for amphotericin B. Fungal strains were tested in RPMI media. RPMI is standard Roswell Park Memorial Institute medium (Morton, H. C., (1970) A survey of Commercially Available Tissue Culture Media. In Vitro 6: 89-108).
(§7) The final inoculum for S. aureus was 5×10^4 cfu/ml. The final inoculum for C. albicans was 2×10^3 cfu/ml. The final inoculum for Aspergillus fumigatus and for Fusarium spp was 2×10^4 cfu/ml.
(§8) Candida and S. aureus plates were read after 24 hrs incubation and the Aspergillus and Fusarium strains read after 48 hrs. The MIC was taken as the lowest drug or compound concentration that caused >80% reduction in growth compared with a drug free control.

[2] = tested on: Fusarium spp 6507 (clinical isolate); experiment: Antifungal MIC broth dilution (Example 1); settings: RPMI, 48 hrs, >80% reduction
Procedure: as §4, §5, §6, §7, §8

[3] = tested on: Candida albicans 6862 (clinical isolate); experiment: microbe, parasite or virus in culture
Procedure: as §4, §5, §6, §7, §8

Fusarium solani 3 (FS3) = experiment: Antifungal MIC (Example 4); set-up: MIC values (>80% reduction) FS3, positive control: unit not given beside the values; settings: for MIC values (>80% reduction) FS3: Fusarium solani 3, peptides, Tables 4 and 5
Procedure: as §1, §2, §3

[4] = tested on: Aspergillus fumigatus AF293 (NCPF7367); experiment: microbe, parasite or virus in culture; set-up: MIC values (>80% reduction) AF, positive control: unit not given beside the values; settings: for MIC values (>80% reduction) AF: Aspergillus fumigatus 293, peptides, Tables 4 and 5
Procedure: as §4, §5, §6, §7, §8
Aspergillus fumigatus 293 (AF); and
as §2, with “means. […]” for “means.”

[5] = tested on: Aspergillus terreus (clinical isolate); experiment: microbe, parasite or virus in culture
Procedure: as §4, §5, §6, §8

[6] = tested on: Aspergillus niger (clinical isolate); experiment: microbe, parasite or virus in culture
Procedure: as §4, §5, §6, §8

[7] = tested on: Staphylococcus aureus (Oxford strain); experiment: microbe, parasite or virus in culture
Procedure: as §4, §5, §6
S. aureus was tested in Isosensitest broth. Isosentitest agar is a standard MIC medium used by many hospital labs for bacterial MICs using a disc diffusion method. The reference standard is Oxoid CM471. Also available in broth form, CM473, for the bacterial broth dilution assay method. NCCLS ref M7-A4. Both the NCCLS methods quoted are the standard methods.
as §7, §8

Fusarium solani 1 (FS1) = experiment: Antifungal MIC (Example 4); set-up: MIC values (>80% reduction) FS1, positive control: unit not given beside the values; settings: for MIC values (>80% reduction) FS1: Fusarium solani 1, peptides, Tables 4 and 5
Procedure: as §1, §2, §3

fungi = settings: overall statement on the fungi tested
Procedure: as §4, §5
The bacterium S. aureus was tested with each of the peptides as a control. […] RPMI is standard Roswell Park Memorial Institute medium (Morton, H. C., (1970) A survey of Commercially Available Tissue Culture Media. In Vitro 6: 89-108).
as §8, §3

[8] = tested on: Acanthamoeba polyphaga (trophozoites), Ros strain; experiment: Microtitre plate assay against Acanthamoeba trophozoites (Example 2); settings: lowest concentration killing the trophozoite challenge
Text: The test compounds were screened against the trophozoites of clinical isolates of Acanthamoeba spp. using a microtitre plate assay procedure. The organisms were Acanthamoeba polyphaga. (see for details on the strain and methodology used: Hughes, R. & Kilvington, S. (2001). A comparison of hydrogen peroxide contact lens disinfection systems and solutions against Acanthamoeba polyphaga. Antimicrob. Agents Chemother. 45: 2038-2043.) Acanthamoeba polyphaga Ros strain was used throughout the study. The strain was originally isolated from an unpublished case of acanthamoeba keratitis in the United Kingdom in 1994.
Use of the microliter plate assay enabled the determination of the minimum amoebacidal trophozoite concentration (MATC), which is the minimum amoebacidal trophozoite concentration (μg/ml)=lowest concentration killing the trophozoite challenge […] and also the minimum inhibitory trophozoite concentration (MITC), which is the minimum inhibitory trophozoite concentration (μg/ml)=lowest concentration stopping the trophozoites from dividing or killing about 50% of population. The values may then be used to select drug concentrations for use in time-kill experiments to study the kinetics of Acanthamoeba killing.

[9] = tested on: Candida albicans (CA), clinical isolate; experiment: Antifungal MIC (Example 4); settings: peptides, Tables 4 and 5
Procedure: as §1, §2, §3

| Molecule | antifungal activity (in words) (fungi) | MIC values (>80% reduction) CA [9] [µM] | MIC values (>80% reduction) FS4 (Fusarium solani 4 (FS4)) [µM] | MIC values (>80% reduction) FS2 (Fusarium solani 2 (FS2)) [µM] | MIC values (>80% reduction) FS3 (Fusarium solani 3 (FS3)) [µM] | MIC values (>80% reduction) AF [4] [µM] | MIC values (>80% reduction) FS1 (Fusarium solani 1 (FS1)) [µM] | also measured |
| --- | --- | --- | --- | --- | --- | --- | --- | --- |
| C[C@@H]1[C@H](O)[C@@H](C)/C=C/C=C/C=C/C=C/C=C/C=C/C=C/[C@H](O[C@@H]2O[C@H](C)[C@@H](O)[C@H](N)[C@@H]2O)C[C@@H]2O[C@](O)(C[C@@H](O)C[C@@H](O)[C@H](O)CC[C@@H](O)C[C@@H](O)CC(=O)O[C@H]1C)C[C@H](O)[C@H]2C(=O)O [Amphotericin B, reference compound] | – | – | – | – | – | – | – | MIC values (>80% reduction) FS4, positive control (Fusarium solani 4 (FS4); Amphotericin B, fourth of five values, unit not given): 0.15; MIC values (>80% reduction) FS2, positive control (Fusarium solani 2 (FS2); Amphotericin B, second of five values, unit not given): 1.25; MIC ([1]; read-out: MIC): 2.5 µg/mL; MIC ([2]; read-out: MIC): 1.25 µg/mL; MIC ([3]; Candida albicans, C. albicans 6862, RPMI, read after 24 hrs, >80% reduction in growth, read-out: MIC): 0.6 µg/mL; MIC values (>80% reduction) FS3, positive control (Fusarium solani 3 (FS3); Amphotericin B, third of five values, unit not given): 0.3; MIC values (>80% reduction) AF, positive control ([4]; Amphotericin B, fifth of five values, unit not given): 0.04; MIC ([4]; NCPF7367, Aspergillus fumigatus, RPMI, read after 48 hrs, >80% reduction, read-out: MIC): 0.6 µg/mL; MIC ([5]; Aspergillus terreus, RPMI, >80% reduction, read-out: MIC): 1.25 µg/mL; MIC ([6]; Aspergillus niger, RPMI, >80% reduction, read-out: MIC): 0.15 µg/mL; MIC ([7]; Staphylococcus aureus, Staph aureus (Oxford), Isosensitest broth, 24 hrs, read-out: MIC): > 40 µg/mL; MIC values (>80% reduction) FS1, positive control (Fusarium solani 1 (FS1); Amphotericin B, first of five values, unit not given): 0.15 |
| Ac-WRKWRKRLLLRKLRKRLL-NH2 [MU_114] | showed antifungal activity | – | – | – | – | – | – | MATC = minimum amoebacidal trophozoite concentration ([8]; listed as MU 114): 98.7 µM; MATC = minimum amoebacidal trophozoite concentration ([8]; listed as MU114): 93.8 µM; MIC [1]: 5 µM; MIC [2]: 40 µM; MIC ([3]; 6862 (clinical isolate, 24 h)): >40 µM; MIC ([4]; AF293 (NCPF7367, 48 h)): >40 µM; MIC [5]: >40 µM; MIC ([6]; clinical isolate): 20 µM; MIC ([7]; Oxford strain, 24 h): 40 µM |
| WRWRKRWRKWRWRKRWRK (Artificial polypeptide designated MU 27) [MU_27] | good antifungal activity | 20 | 1.25 | 0.6 | 0.6 | 5 | 0.6 | – |
| KRKKRKRKKKRKKRKRKK (Artificial polypeptide designated MU 18) [MU_18, 85] | particularly effective antifungal peptides | >40 | >40 | 10 | 2.5 | >40 | 2.5 | – |
| RRKRRKRRRRRKRRKRRR (Artificial polypeptide designated MU 16) [MU_16] | particularly effective antifungal peptides | 10 | 2.5 | 1.25 | 1.25 | 40 | 1.25 | – |
| WRWKKKWRKWRWKKKWRK (Artificial polypeptide designated MU 26) [MU_26, 89] | reduced activity | >40 | 10 | 5 | 5 | >40 | 5 | – |
| WRWRRRWRKWRWRRRWRK (Artificial polypeptide designated MU 25) [MU_25, 88] | reduced activity | >40 | 20 | 5 | 10 | 10 | 5 | – |
| FRKFRKRFFFRKFRKRFF (Artficial polypeptide designated MU7) [MU_7] | particularly effective antifungal peptides | >40 | 20 | 2.5 | 5 | >40 | 5 | MATC = minimum amoebacidal trophozoite concentration [8]: 93.1 µM |
| RRWRKRWRKWRWRKRWRK (Artificial polypeptide designated MU 28) [MU_28, 42] | good antifungal activity | >40 | 2.5 | 0.6 | 1.25 | 10 | 0.6 | – |
| CRKCRKRCCCRKCRKRCC (Artficial polypeptide designated MU 12) [MU_12] | particularly effective antifungal peptides | >40 | 5 | 5 | 10 | 40 | 2.5 | – |

Reference: patent publication US8916516B2, “Treatment of fungal and/or protist infections” (AI2 Limited, priority 2005, dated 2014)
